Measured values reported in the CheMixHub viscosity set.
Values joined by “and” are separate entries in the source; they are usually repeats but may differ in a detail not shown here. Equal entries are not always repeated.

Test: xn = mol fraction of the nth substance listed

NCCN + CC(O)CO
viscosity [mPa·s], 101 kPa
Conditions	293.15 K	298.15 K	303.15 K	308.15 K	313.15 K	318.15 K
x2 = 0.0399	1.85	1.64	1.48	1.33	1.2	1.08
x2 = 0.0807	2.29	2	1.82	1.62	1.43	1.29
x2 = 0.1223	2.72	2.49	2.23	1.95	1.81	1.54
x2 = 0.1649	3.73	3.14	2.84	2.47	2.21	1.89
x2 = 0.2084	4.73	4.04	3.54	3.02	2.63	2.28
x2 = 0.2529	6.26	5.27	4.5	3.9	3.33	–
x2 = 0.2984	8.74	7.05	6	5.01	4.23	–
x2 = 0.3449	11.9	9.4	7.92	6.61	5.49	–
x2 = 0.3926	16.9	12.4	10.5	8.39	6.94	–
x2 = 0.4413	22.8	16.9	13.6	10.7	8.8	–
x2 = 0.4912	30.5	22.5	17.7	13.7	11	–
x2 = 0.5423	39.6	28.8	22.7	17.2	13.6	–
x2 = 0.5946	48.1	34.7	27.4	20.6	16.1	–
x2 = 0.6483	55.8	41.5	31.7	23.6	18.5	–
x2 = 0.7032	62.6	46.3	35.2	25.9	20.3	–
x2 = 0.7596	66.6	49.7	37.8	27.6	21.6	–
x2 = 0.8174	66.8	49.9	38.4	28.4	22.2	–
x2 = 0.8767	64.5	48.8	37.4	27.4	22.1	–
x2 = 0.9375	60.7	46.2	35.5	26.2	21.1	–

CC(C)(C)O + O
Conditions	viscosity
298.15 K, 100 kPa, x1 = 0.1	3.149 mPa·s
298.15 K, 100 kPa, x1 = 0.25	4.729 mPa·s
298.15 K, 100 kPa, x1 = 0.3	4.782 mPa·s
298.15 K, 100 kPa, x1 = 0.4	4.889 mPa·s
298.15 K, 100 kPa, x1 = 0.5	4.646 mPa·s
298.15 K, 100 kPa, x1 = 0.75	4.225 mPa·s
298.15 K, 101 kPa, x1 = 0.026	1.506 mPa·s
298.15 K, 101 kPa, x1 = 0.057	2.309 mPa·s
298.15 K, 101 kPa, x1 = 0.094	3.123 mPa·s
298.15 K, 101 kPa, x1 = 0.14	3.797 mPa·s
298.15 K, 101 kPa, x1 = 0.2	4.311 mPa·s
298.15 K, 101 kPa, x1 = 0.27	4.715 mPa·s
298.15 K, 101 kPa, x1 = 0.36	4.835 mPa·s
298.15 K, 101 kPa, x1 = 0.49	4.73 mPa·s
298.15 K, 101 kPa, x1 = 0.69	4.355 mPa·s
298.15 K, 101.33 kPa, x1 = 0.02	1.315 mPa·s and 1.33 mPa·s and 1.27 mPa·s
298.15 K, 101.33 kPa, x1 = 0.0206	1.337 mPa·s
298.15 K, 101.33 kPa, x1 = 0.026	1.52 mPa·s and 1.45 mPa·s
298.15 K, 101.33 kPa, x1 = 0.0397	1.85 mPa·s
298.15 K, 101.33 kPa, x1 = 0.04	1.89 mPa·s and 1.79 mPa·s
298.15 K, 101.33 kPa, x1 = 0.0447	2.015 mPa·s
298.15 K, 101.33 kPa, x1 = 0.057	2.35 mPa·s and 2.19 mPa·s
298.15 K, 101.33 kPa, x1 = 0.06	2.379 mPa·s and 2.42 mPa·s and 2.26 mPa·s
298.15 K, 101.33 kPa, x1 = 0.0745	2.78 mPa·s
298.15 K, 101.33 kPa, x1 = 0.0798	2.818 mPa·s
298.15 K, 101.33 kPa, x1 = 0.094	3.16 mPa·s and 2.97 mPa·s
298.15 K, 101.33 kPa, x1 = 0.1	3.26 mPa·s and 3.05 mPa·s
298.15 K, 101.33 kPa, x1 = 0.101	3.238 mPa·s
298.15 K, 101.33 kPa, x1 = 0.1121	3.55 mPa·s
298.15 K, 101.33 kPa, x1 = 0.1181	3.532 mPa·s
298.15 K, 101.33 kPa, x1 = 0.139	3.88 mPa·s and 3.66 mPa·s
298.15 K, 101.33 kPa, x1 = 0.1395	3.842 mPa·s
298.15 K, 101.33 kPa, x1 = 0.1574	4.288 mPa·s
298.15 K, 101.33 kPa, x1 = 0.1609	4.176 mPa·s
298.15 K, 101.33 kPa, x1 = 0.196	4.47 mPa·s and 4.41 mPa·s
298.15 K, 101.33 kPa, x1 = 0.198	4.441 mPa·s
298.15 K, 101.33 kPa, x1 = 0.2199	4.888 mPa·s
298.15 K, 101.33 kPa, x1 = 0.267	4.89 mPa·s and 4.86 mPa·s
298.15 K, 101.33 kPa, x1 = 0.3027	4.984 mPa·s
298.15 K, 101.33 kPa, x1 = 0.3035	5.292 mPa·s
298.15 K, 101.33 kPa, x1 = 0.362	4.99 mPa·s and 4.96 mPa·s
298.15 K, 101.33 kPa, x1 = 0.4285	5.484 mPa·s
298.15 K, 101.33 kPa, x1 = 0.4313	5.285 mPa·s
298.15 K, 101.33 kPa, x1 = 0.4315	5.316 mPa·s
298.15 K, 101.33 kPa, x1 = 0.493	4.86 mPa·s and 4.86 mPa·s
298.15 K, 101.33 kPa, x1 = 0.4939	5.199 mPa·s
298.15 K, 101.33 kPa, x1 = 0.5001	4.811 mPa·s
298.15 K, 101.33 kPa, x1 = 0.5965	4.912 mPa·s
298.15 K, 101.33 kPa, x1 = 0.686	4.48 mPa·s and 4.5 mPa·s
298.15 K, 101.33 kPa, x1 = 0.6961	4.646 mPa·s
298.15 K, 101.33 kPa, x1 = 0.6976	4.409 mPa·s
298.15 K, 101.33 kPa, x1 = 0.7888	4.392 mPa·s
298.15 K, 101.33 kPa, x1 = 0.7907	4.397 mPa·s
298.15 K, 101.33 kPa, x1 = 0.7931	4.254 mPa·s
298.15 K, 101.33 kPa, x1 = 0.822	4.27 mPa·s and 4.28 mPa·s
298.15 K, 101.33 kPa, x1 = 0.8932	4.308 mPa·s
298.15 K, 101.33 kPa, x1 = 0.9088	4.222 mPa·s
298.15 K, 101.33 kPa, x1 = 0.9422	4.288 mPa·s
298.15 K, 101.33 kPa, x1 = 0.96	4.37 mPa·s and 4.41 mPa·s
298.15 K, 101.33 kPa, x1 = 0.9734	4.408 mPa·s
303 K, 101 kPa, x2 = 0.3	3.527 mPa·s
303 K, 101 kPa, x2 = 0.5	3.881 mPa·s
303 K, 101 kPa, x2 = 0.65	3.975 mPa·s
303 K, 101 kPa, x2 = 0.91	2.475 mPa·s
303 K, 101 kPa, x2 = 0.95	1.772 mPa·s
303.2 K, 101.33 kPa, x2 = 0.05	3.236 mPa·s
303.2 K, 101.33 kPa, x2 = 0.1	3.214 mPa·s
303.2 K, 101.33 kPa, x2 = 0.15	3.247 mPa·s
303.2 K, 101.33 kPa, x2 = 0.2	3.309 mPa·s
303.2 K, 101.33 kPa, x2 = 0.3	3.455 mPa·s
303.2 K, 101.33 kPa, x2 = 0.4	3.599 mPa·s
303.2 K, 101.33 kPa, x2 = 0.5	3.743 mPa·s
303.2 K, 101.33 kPa, x2 = 0.6	3.877 mPa·s
303.2 K, 101.33 kPa, x2 = 0.7	3.836 mPa·s
303.2 K, 101.33 kPa, x2 = 0.8	3.541 mPa·s
303.2 K, 101.33 kPa, x2 = 0.85	3.182 mPa·s
303.2 K, 101.33 kPa, x2 = 0.9	2.604 mPa·s
303.2 K, 101.33 kPa, x2 = 0.95	1.738 mPa·s
304 K, 101 kPa, x2 = 0.75	3.646 mPa·s
305 K, 101 kPa, x2 = 0.1	3.026 mPa·s
308.15 K, 101 kPa, x1 = 0.05	1.541 mPa·s
308.15 K, 101 kPa, x1 = 0.1	2.188 mPa·s
308.15 K, 101 kPa, x1 = 0.2	2.951 mPa·s
308.15 K, 101 kPa, x1 = 0.3	3.186 mPa·s
308.15 K, 101 kPa, x1 = 0.4	3.219 mPa·s
308.15 K, 101 kPa, x1 = 0.5	3.116 mPa·s
308.15 K, 101 kPa, x1 = 0.6	2.973 mPa·s
308.15 K, 101 kPa, x1 = 0.7	2.837 mPa·s
308.15 K, 101 kPa, x1 = 0.8	2.701 mPa·s
308.15 K, 101 kPa, x1 = 0.9	2.635 mPa·s
308.15 K, 101 kPa, x1 = 0.95	2.606 mPa·s
313 K, 101 kPa, x2 = 0.1	2.146 mPa·s
313 K, 101 kPa, x2 = 0.3	2.33 mPa·s
313 K, 101 kPa, x2 = 0.5	2.586 mPa·s
313 K, 101 kPa, x2 = 0.65	2.674 mPa·s
313 K, 101 kPa, x2 = 0.75	2.587 mPa·s
313 K, 101 kPa, x2 = 0.91	1.747 mPa·s
313 K, 101 kPa, x2 = 0.95	1.287 mPa·s
313.15 K, 101 kPa, x1 = 0.05	1.311 mPa·s
313.15 K, 101 kPa, x1 = 0.07	1.54 mPa·s
313.15 K, 101 kPa, x1 = 0.1	1.84 mPa·s
313.15 K, 101 kPa, x1 = 0.2	2.453 mPa·s
313.15 K, 101 kPa, x1 = 0.3	2.615 mPa·s
313.15 K, 101 kPa, x1 = 0.4	2.618 mPa·s
313.15 K, 101 kPa, x1 = 0.5	2.534 mPa·s
323 K, 101 kPa, x2 = 0.1	1.471 mPa·s
323 K, 101 kPa, x2 = 0.3	1.623 mPa·s
323 K, 101 kPa, x2 = 0.5	1.809 mPa·s
323 K, 101 kPa, x2 = 0.65	1.889 mPa·s
323 K, 101 kPa, x2 = 0.75	1.85 mPa·s
323 K, 101 kPa, x2 = 0.91	1.306 mPa·s
323 K, 101 kPa, x2 = 0.95	0.9856 mPa·s
323.15 K, 100 kPa, x1 = 0.1	1.273 mPa·s
323.15 K, 100 kPa, x1 = 0.3	1.834 mPa·s
323.15 K, 100 kPa, x1 = 0.4	1.833 mPa·s
323.15 K, 100 kPa, x1 = 0.5	1.696 mPa·s
323.15 K, 100 kPa, x1 = 0.75	1.429 mPa·s
